One may read the melting point as the temperature, or range, at which the solid turns liquid.

Some results are limits rather than exact numbers.

Compound `O=C(O)C=Cc1ccc(NC(=O)CCCCCNC(=O)OCc2ccccc2)cc1` came in with a melting point of 142 to 144 °C.
Compound `OCCc1ccc2cc(Br)ccc2n1` gave a melting point of 103 to 104 °C.
In the case of `COc1cc(COc2nn(-c3ccccc3)cc2/C=C/C(N)=S)ccc1OCc1nc(-c2ccco2)oc1C` it was 129 to 131 °C; in that of `CC(C)c1ccc(OC(Cc2ccc(OCCNC(=O)c3ccc(-c4ccc(N(C)C)cn4)cc3)cc2)C(=O)O)cc1` (stereo not given), 150 to 151 °C.
Turning to `NC(=O)C1(Nc2ccccc2)CCN(C2CCCc3ccccc32)CC1` (stereo not given), the melting point was 186 to 187 °C.
In the case of `CCCc1oc2ccc([N+](=O)[O-])cc2c1C(=O)c1ccc(OC)cc1` it was 73 °C; in that of `O=C(NO)c1cnc(N(CCO)Cc2cc3nc(-c4cccc5[nH]ncc45)nc(N4CCOCC4)c3s2)nc1`, 190 to 194 °C.
The value for `COC(=O)C(CNC(=O)c1ccccc1)NC(=O)C(C)(C)NC(=O)C(SC(C)=O)C(C)C` (stereo not given) was 48 to 54 °C.
Compound `NC(=O)c1cc2c(Oc3ccc(C(F)(F)F)cc3)cnc(Cl)c2s1` displayed a melting point of 175 to 176 °C.
The value for `COc1ccc(C(=O)NC(=S)NCc2ccccc2C(N)=O)cc1` was 140 to 143 °C; that for `COC(=O)CC(c1ccc(OC)c(OC)c1)N1C(=O)C2C=CCCC2C1=O` (stereo not given) was 100 to 102 °C.
In the case of `COc1c(N2CC(C)C(N)C(C)C2)c(F)cc2c(=O)c(C(=O)O)cn(C3CC3)c12` (stereo not given) it was 178 to 180 °C.
`O=C(O)C1(c2ccc(C#Cc3ccccc3)cc2)CC1` showed a melting point of 214 to 218 °C.
Compound `CCOC(=O)c1cn(CC2CC2)c2cc(-n3cccc3)c(F)cc2c1=O` displayed a melting point of 125 to 127 °C.
In turn, `CN(c1ccc(Cl)cc1)C1CCN(C2CCN(c3ccc(OC[C@@]4(C)Cn5cc([N+](=O)[O-])nc5O4)cc3)CC2)CC1` had a melting point of 231 to 232 °C.
In the case of `CC(C)(C)c1ccc(C(=O)Nc2cn3cc(-c4cccnc4)ccc3n2)cc1` it was 288 to 289 °C; in that of `CCC1CCn2c(nc(-c3ccncn3)cc2=O)N1CC(=O)c1ccccc1` (stereo not given), 187 to 189 °C; in that of `CSc1c(C#N)nn(-c2c(Cl)cc(C(F)(F)F)cc2Cl)c1N(C)C`, 118 to 119 °C.
Consider `COCc1cnc2c(NC(=O)c3ccccc3C(F)(F)F)cccc2c1-n1ccnc1`, for which the melting point was 126 to 127 °C.
The value for `O=C1O[C@H](Cc2ccon2)CN1c1ccc(N2CCC3(CC2)OCCO3)c(F)c1` was 120 to 122 °C.
The value for `O=C(O)C(=O)c1ccc(OCCCc2ccc(F)cc2)cc1` was 77 to 78 °C.
The value for `CNC(=O)NC(CCSC)C(N)=O` (racemic) was 156 to 157 °C; that for `Fc1ccc(Cn2c(CC3CCN(Cc4ccccc4)CC3)nc3cncnc32)cc1` was 136 °C; that for `COC(=O)C1=C[C@@H](OC(C)C)[C@H](NC(C)=O)[C@@H](CC2CO2)C1` (stereo not given in full) was 130 to 131 °C.
For the compound `CC#CC1Cc2ccc(C(=O)CCC(=O)N3CCC(c4ccc(Cl)cc4)CC3)cc2CCN1` (stereo not given), the melting point was in the range of 132 to 134 °C.
In the case of `CCCNCCCOc1ccc(-c2ccc(C(=O)O)cc2)cc1-c1ccc2c(c1)C(C)(C)CCC2(C)C` it was 226 °C.
On to `CC(=O)Nc1ccc(C=CC(=O)N2CCc3c([nH]c4ccccc34)C2c2ccccc2)cc1` (stereo not given), for which the melting point lay within 177 to 180 °C.
The value for `O=C(C(=CO)c1ccccc1)c1ccccc1` was 110 to 114 °C.
Consider `CCOc1ccccc1C=C1CCc2c1oc1ccc(C(=O)OC)cc1c2=O`, for which the melting point was in the range of 189 to 192 °C.
The value for `NC1=NS(=O)N=C1NCCCOc1cccc2c(=O)[nH]ccc12` (stereo not given) was 235 °C.
In the case of `N#CCOc1cccc(CCNS(=O)(=O)c2ccc(Cl)cc2)c1` it was 92 °C.
Turning to `FCc1nnc2n1-c1ccc(Cl)cc1C(c1ccccc1)=NC2`, the melting point is 153 to 154 °C.
Compound `OCC(CO)c1nc(NCc2ccccn2)c2c(-c3ccccc3)csc2n1` yielded a melting point of 137 to 139 °C.
As to `Cc1cc(C)c2nc(NC3CCN(CCCS(N)(=O)=O)CC3)n(Cc3nc(C)ccc3O)c2c1`, the melting point came out at 180 °C.
As to `CCCC1=C(C(=O)OCC)C(c2cccc3nsnc23)c2c[nH]nc2N1` (stereo not given), the melting point was 180 °C.
In the case of `O=C(O)CNC(=O)[C@@H](CO)NC(=O)CNC(=O)CSC(=O)c1ccccc1` it was 149 °C; in that of `Nc1nc2ccc(CCN3CCC(Cc4ccccc4)CC3)cc2s1`, 152 to 153 °C; in that of `CC(C)(C)OC(=O)Oc1ccc(C(C(=O)OC(c2ccccc2)c2ccccc2)N2CC(N)C2=O)cc1` (stereo not given), 120 to 122 °C.
The compound `NC(CCc1ccccc1CP(=O)(O)O)C(=O)O` (stereo not given) showed a melting point of 247 to 249 °C.
Take `O=C1c2nccc(-c3ccccc3NC(=O)C(F)(F)F)c2C(=O)c2c([N+](=O)[O-])ccnc21`: the melting point turned out to be 158 °C.
In the case of `CN1Cc2ccccc2C(Oc2ccc([N+](=O)[O-])cc2)C1` (stereo not given) it was 142 to 143 °C; in that of `COc1cccc(OC)c1C=CC(=O)c1ccccc1`, 54.9 to 55.8 °C.
Compound `Cc1nc2ccccc2c(N)c1C(C)O` (stereo not given) had a melting point of 214 °C.
In turn, `O=C(O)c1ccc(-c2nc(-c3ccccn3)cs2)cc1` returned a melting point of more than 300 °C.
The value for `CCc1ccc(-c2cn(C)cc(-c3ccccc3)c2=O)cc1` was 143 to 145 °C; that for `Cc1nn(C)c2[nH]c(=O)c3c(c12)CCCC3` was more than 300 °C; that for `Cc1ccc(C(=O)C2=C(O)C(=O)N(c3ccc(C)nn3)C2c2ccc(OC(C)C)cc2)cc1` (stereo not given) was 268 to 272 °C.
`O=C(c1ccc(C(F)(F)F)cc1)N1Cc2c(-c3ccc(F)cc3)ncn2-c2ccccc21` displayed a melting point of 211 to 212 °C.
Turning to `COc1ccc(CN2C(=O)[C@H](NC(=O)COc3ccccc3)[C@@H]2c2ccccc2C2OCCO2)c(OC)c1` (relative stereo), the melting point lay in the range of 137 to 138 °C.
In the case of `Cn1c(=O)c([N+](=O)[O-])c(O)c2ccccc21` it was 193 °C.
In the case of `O=C(O)c1ccc2c(CCNCc3cccc(OCC(F)(F)F)c3)c[nH]c2c1` it was 232 to 235 °C; in that of `CCCCCCCCCCCCOP(=O)(CC(=O)Nc1c(C(C)C)cccc1C(C)C)c1ccccc1` (stereo not given), 66 to 68 °C; in that of `CCCc1nc2c(N)nc3ccccc3c2n1CCc1cc(-c2ccc(F)cc2)no1`, 208 to 209 °C.
In the case of `CC(C)(O)CCOc1c(-c2ccc(S(N)(=O)=O)cc2)cnn(-c2ccc(F)c(F)c2)c1=O` it was 181 °C; in that of `NS(=O)(=O)Oc1ccc(C(=O)c2ccc(OS(N)(=O)=O)cc2)cc1`, 182 to 185 °C; in that of `c1ccc(CN2CCN(Cc3cc4ccccc4[nH]3)CC2)cc1`, 157 to 159 °C.
Compound `O=C(C(c1ccccc1)n1cnc2[nH]ncc2c1=S)N1CCN(c2ccccn2)CC1` (stereo not given) returned a melting point of 242 to 246 °C.
The value for `CC(O)C#Cc1cc(C(C)Nc2nc(N)nc(C(C)(C)F)n2)ccc1F` (stereo not given) was 119 to 122 °C; that for `COC(=O)C1=C(C)NC(CC(=O)N2CCN(C3CC4CCC(C3)N4C(=O)OC(C)Cl)CC2)=C(C(=O)OC)C1c1c(Cl)cccc1Cl` (stereo not given) was 135 to 145 °C.
Compound `CC1(C)OC(c2ccc(S(C)(=O)=O)cc2)=C(c2cccc([N+](=O)[O-])c2)C1=O` registered a melting point of 158 to 159 °C.
`CC(=O)NC[C@H]1CN(c2ccc(-n3cnnc3)c(F)c2)C(=O)O1`: the melting point lay within 204 to 206 °C.
In the case of `COc1ccc2c(c1)c1c3c(c(-c4ccccc4Cl)cc1n2C(C)=O)C(=O)NC3=O` it was 277 to 280 °C; in that of `O=C(O)C1CCCc2c(OCc3ccccc3)cccc21` (stereo not given), 145 to 146 °C; in that of `COC(=O)C(c1ccc(Br)cc1)(c1ccc(Br)cc1)c1ncc[nH]1`, 135 °C.
The value for `CCOC(=O)NNc1nc2ccccc2n2cnc(C(=O)OCC)c12` was 126 to 128 °C.
In the case of `COC(=O)CCc1ccc(N2C(=O)CN(c3ccc(C(=N)NC(=O)OC)cc3)C2=O)cc1` it was 250 °C.
Take `Cc1ncc2n1C(=O)N(C1CCN(C(=O)CCS(=O)(=O)c3ccc4cc(Cl)ccc4c3)CC1)C2`: the melting point stood at 195 °C.
The value for `Cn1nc2c(oc3ccccc32)c1NCC(F)(F)F` was 120 to 121 °C; that for `CCOC(=O)c1ncn2c1[C@@H]1CCN1C(=O)c1c-2ccc(F)c1F` was 234 to 236 °C; that for `Cn1cc(C2=C(c3cn(C)c4ccc(O)cc34)C(=O)NC2=O)c2ccccc21` was 284 to 287 °C.
In the case of `COC1(c2cccc(OCc3ccc(-n4ccnc4C)cc3F)c2)CCOCC1`, the melting point fell in the range of 121 to 122 °C.
As to `CC(C)(C)c1cc(Sc2nnc(NC(=N)N)s2)cc(C(C)(C)C)c1O`, the melting point lay in the range of 248 to 249 °C.
The value for `COc1ccc(-c2cnc(N3Cc4c([nH]c5ccccc5c4=O)C3c3ccc4c(c3)OCO4)nc2)cc1` (stereo not given) was 325 to 327 °C; that for `CC(C)(C)C(=O)NCCCN(CCCNC(=O)C(C)(C)C)c1ccccc1` was 72 °C; that for `Nc1nc2ccc(S(=O)(=O)n3c(CCCC(=O)O)cc4cc(Cl)ccc43)cc2s1` was 155 to 162 °C.
With `CN(C)CC(=O)OCC1CC(c2ccc(-c3ccc(N4C[C@H](Cn5ccnn5)OC4=O)cc3F)cn2)=NO1` (stereo not given in full), the melting point was in the range of 185 to 198 °C.
In the case of `COc1cc(Cl)cnc1OCC#Cc1ccc(Cl)nc1` it was 94 °C.
Compound `CC(Cl)c1nc2ccccc2c(=O)o1` (stereo not given) registered a melting point of 90 °C.
The value for `CC(=O)NC[C@H]1CN(c2ccc(N3CCN(CCN4CCCCC4)CC3)c(F)c2)C(=O)O1` was 169 to 170 °C.
The value for `Fc1ccc(-c2nnc(Cl)cc2Cl)cc1` was 124 to 127 °C.
The value for `CC(C)(C)c1cc(-c2c[nH]c(CNC(=O)OCc3ccccc3)n2)cc(C(C)(C)C)c1O` was 212 to 213 °C; that for `CC(C)(C)c1cc(-n2nc3ccccc3n2)c(O)c(C(C)(C)C)c1` was 150 to 152 °C; that for `Nc1ccc(-c2ccc(=O)[nH]n2)cc1Cl` was 280 to 282 °C.
For the compound `O=C1CN2Cc3c(O)cccc3N=C2N1`, the melting point is more than 280 °C.
`COC1=C(OC)C(=O)OC1=O` came in with a melting point of 41 to 43 °C.

For the origin of these results see a melting point compilation (Tetko et al.; mined from patent text by program, amines drawn as free bases though some values may be those of a salt).
